Reference: patent publication US20250186313A1, “SCALP OR HAIR CARE COMPOSITION COMPRISING NANO-CARBON STRUCTURE” (INBCT Co., Ltd., priority 2022, published 2025)

Legend:
[1] = tested on: artificial skin model KeraSkin; test: Skin irritation test using artificial skin model KeraSkin (MTT); conditions: negative control (DPBS) = 100%, nano-carbon structure at 0.1 wt % (1 mg/mL)
Description: The inventors of the present invention evaluated the skin irritation of nano-carbon structures using the artificial skin model KeraSkin.
Specifically, the inventors of the present invention attempted to predict the possibility of skin irritation by measuring the damage to skin cells that appear while penetrating the stratum corneum of KeraSkin after sample treatment. This experiment used MTT, which is a reagent for measuring the cell viability of test materials, and was performed in compliance with the Cosmetic Risk Assessment Guidelines (Ministry of Food and Drug Safety, 2013) and Cosmetic Toxicity Test Animal Alternative Test Method Guideline V: Skin Irritation Test Method Using a Human Skin Model (Ministry of Food and Drug Safety, 2014).

[2] = tested on: artificial skin model KeraSkin; test: Skin corrosion test using artificial skin model KeraSkin (MTT); type: cell-based, human; conditions: negative control (deionized water) = 100%, nano-carbon structure at 0.1 wt % (1 mg/mL)
Source text: The inventors of the present invention evaluated the skin corrosion properties of nano-carbon structures by using the artificial skin model […] is an artificial skin model that reproduces the skin's epithelium using human-derived skin keratinocytes and is manufactured to be similar to real skin in terms of morphology, microstructure and biomarker expression.

[3] = tested on: artificial skin model KeraSkin; test: Skin barrier function improvement in SDS-damaged KeraSkin (TEER, TEWL, H&E, immunohistochemistry); type: cell-based, human; conditions: KeraSkin damaged with 2% SDS, 10 μM retinoic acid or 0.01 wt % NGO
Description: After treating the surface of KeraSkin with SDS (sodium dodecyl sulfate), which is an anionic surfactant, to weaken the skin's natural barrier function, a positive control material (10 μM retinoic acid) and a test material (0.01 wt % NGO) were added to the surface for 48 days. In order to evaluate the degree of improvement in the skin barrier function weakened by SDS by 48-hour application treatment, electrical resistance in epithelial tissue was measured by using the Millipore ERS-2 (Millipore, USA) system, and transepidermal water loss was measured by using the GPSKIN BARRIER PRO-II system, and histopathology was performed on four types of skin barrier markers through immunochemical staining.
The epithelial cell layer has developed tight junctions, which are one of the forms of bonding between cells. These tight junctions form physical and chemical barriers, and the strength and integrity of these barriers can be assessed through the degree of electrical resistance across cell layers, which are called “transepithelial electrical resistance (TEER).” As the barrier function is excellent, the transepithelial electrical resistance value increases.
Transdermal moisture is an essential element for the skin to perform its barrier function normally, and when “transepidermal water loss (TEWL)” increases, the enzyme function required for normal exfoliation is damaged, and it is not possible to normally perform the skin barrier functions. Therefore, transepidermal water loss is used as an important physiological indicator during the damage and recovery process of the skin barrier.

CCCCCCCCCCCCOS(=O)(=O)[O-].[Na+] [5% SDS, sodium dodecyl sulfate] was tested, and the cell viability [1] was 1.6%.
[K+].[OH-] [8N KOH, Potassium hydroxide] showed a cell viability ([2]; applied for 3 minutes) of 1.6% and a cell viability ([2]; applied for 1 hour) of 0.6%.
With CC1=C(/C=C/C(C)=C/C=C/C(C)=C/C(=O)O)C(C)(C)CCC1 [retinoic acid] the “increase of transepithelial electrical resistance compared to the barrier damaged group” value [3] was 16.1%, the “reduction of transepidermal water loss compared to the barrier damaged group” value [3] was 10.8% and the “transepithelial electrical resistance (TEER)” value ([3]; 48-hour application, normal 1726.8±85.3, damaged 69.2±2.1) was 347.0±15.7 Ω·cm^2. The “transepidermal water loss (TEWL) rate compared to the negative control group” value ([3]; damaged group 133.7±3.2%) was 122.9±6.5%.
